Assay results published in PMC5587309, “Involvement of arginine 878 together with Ca^2+ in mouse aminopeptidase A substrate specificity for N-terminal acidic amino-acid residues” (PLoS ONE, 2017).
Changes are numbered by the printed parent chain. Read-outs that look alike come from different tables or passages of the source.

What was measured:
Format in all cases: biochemical
[1] = molecular target: T1, R878A mutated mAPA (Mus musculus, UniProt P16406, R878A); assay: Kinetic parameters of substrate hydrolysis by R878A His-mAPA
T1 construct: made in house; host or cells: stably transfected CHO-K1 cells
T1 sequence (P16406 1-945 R878A): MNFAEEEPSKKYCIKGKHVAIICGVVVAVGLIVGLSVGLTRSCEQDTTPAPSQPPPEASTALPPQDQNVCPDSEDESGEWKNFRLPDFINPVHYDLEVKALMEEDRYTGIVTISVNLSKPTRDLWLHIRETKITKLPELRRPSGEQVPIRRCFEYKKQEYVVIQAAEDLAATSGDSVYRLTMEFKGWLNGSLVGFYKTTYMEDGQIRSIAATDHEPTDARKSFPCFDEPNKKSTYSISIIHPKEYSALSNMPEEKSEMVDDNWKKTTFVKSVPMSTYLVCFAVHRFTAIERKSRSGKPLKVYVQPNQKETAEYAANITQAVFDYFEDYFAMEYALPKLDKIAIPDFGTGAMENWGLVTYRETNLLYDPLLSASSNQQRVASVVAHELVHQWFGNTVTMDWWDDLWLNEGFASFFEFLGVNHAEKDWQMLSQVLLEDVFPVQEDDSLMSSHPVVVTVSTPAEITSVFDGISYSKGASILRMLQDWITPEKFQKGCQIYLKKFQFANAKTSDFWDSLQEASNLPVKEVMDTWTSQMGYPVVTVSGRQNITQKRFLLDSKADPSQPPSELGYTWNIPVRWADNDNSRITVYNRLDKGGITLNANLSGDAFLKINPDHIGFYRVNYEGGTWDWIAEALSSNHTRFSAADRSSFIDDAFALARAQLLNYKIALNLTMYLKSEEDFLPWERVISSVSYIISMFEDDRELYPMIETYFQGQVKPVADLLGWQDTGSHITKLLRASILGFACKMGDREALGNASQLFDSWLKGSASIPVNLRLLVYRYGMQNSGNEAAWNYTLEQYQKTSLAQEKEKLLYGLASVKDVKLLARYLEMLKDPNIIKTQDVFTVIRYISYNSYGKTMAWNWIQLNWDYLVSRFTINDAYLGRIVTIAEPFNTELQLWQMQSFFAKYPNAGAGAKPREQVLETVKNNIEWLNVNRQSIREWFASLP
Description: (§1) Enzyme assays were carried out for wild-type and mutated His-mAPAs in 50 mM Tris-HCl buffer, pH 7.4, with or without 4 mM CaCl2, by monitoring the rate of hydrolysis of GluNA, as previously described. The sensitivity to Ca^2+ of purified wild-type and mutated His-mAPA was determinated by incubating 0.5 mM GluNA with 0 to 4 mM CaCl2 in a final volume of 100 μl of 50 mM Tris-HCl buffer, pH 7.4. All the assays were performed in black 96-well plates (solid black 96-well flat-bottomed non-treated plates with no lid; Corning Costar). All of the enzymatic studies were performed such that substrate hydrolysis rates were maintained below 10% (initial rate conditions). The kinetic curves were monitored by following the increase in fluorescence at 460 nm (lex = 330 nm), induced by the release of the β-naphthylamide fluorogenic part of the substrate by APA. Fluorescence signals were monitored by counting photons with a spectrophotometer (Fusion universal microplate analyser; Packard) equipped with a temperature control device and a plate shaker. The kinetic parameters (Km and kcat) were determined from Michaelis-Menten plots, using GraphPad Prism 4 software (GraphPad) with a final concentration of substrate (GluNA) from 0.005 to 5 mM with or without 4 mM Ca^2+. For evaluation of the substrate specificity of APA with or without 4 mM Ca^2+, the rate of hydrolysis of […] additional substrates, α-L-aspartate-β-naphthylamide (AspNA), α-L-alanine-β-naphthylamide (AlaNA) and basic α-L-lysine-β-naphthylamide (LysNA), was determined under the same experimental conditions as described for GluNA. The sensitivity of wild-type and mutated His-mAPAs to inhibition by [(3S)-3-amino-4-sulfanyl-butane-1-sulfonic acid] (EC33), glutamate-thiol (GluSH), glutamate-phosphonic-acid (GluPO3H2), methionine-thiol (MetSH) and lysine-thiol (LysSH) was determined by establishing dose-dependent inhibition curves for a final GluNA concentration of 0.5 mM in the presence or absence of 4 mM CaCl2. These compounds being linear competitive inhibitors, their Ki were calculated from the formula Ki = IC50/ (1+ [GluNA]/Km).

[2] = molecular target: T1, R878A mutated mAPA; assay: Inhibition of GluNA hydrolysis by purified recombinant R878A His-mAPA; details: R878A mAPA; for Ki: 0.5 mM GluNA, read-out: Ki
Description: as §1

[3] = molecular target: T2, R878K mutated mAPA (Mus musculus, UniProt P16406, R878K); assay: Inhibition of GluNA hydrolysis by purified recombinant R878K His-mAPA; details: R878K mAPA; for Ki: 0.5 mM GluNA, read-out: Ki
T2 construct: made in house; host or cells: stably transfected CHO-K1 cells
T2 sequence (P16406 1-945 R878K): T1 sequence (P16406 1-945 R878A) with A878K
Description: as §1

| Km ([1]; 4 mM Ca2+) | kcat ([1]; 4 mM Ca2+) | Km ([1]; no Ca2+) | kcat ([1]; no Ca2+) | enhancement of inhibitory potency by 4 mM Ca2+ compared to Ki in the absence of Ca2+ [2] | Ki ([2]; 4 mM Ca2+) | Ki ([2]; absence of calcium) | enhancement of inhibitory potency by 4 mM Ca2+ compared to Ki in the absence of Ca2+ [3] | Ki ([3]; 4 mM Ca2+) | Ki ([3]; absence of calcium) | decrease in hydrolysis velocity (kcat) compared to wild-type (factor) ([1]; presence of Ca2+) | decrease in the affinity of the enzyme for the substrate compared to wild-type (factor) ([1]; presence of Ca2+) | Compound |
| --- | --- | --- | --- | --- | --- | --- | --- | --- | --- | --- | --- | --- |
| 199 ± 10.1 µM | 17.9 ± 0.2 s⁻¹ | 1220 ± 24.9 µM | 1.89 ± 0.2 s⁻¹ |  |  |  |  |  |  |  |  | N[C@@H](CC(=O)O)C(=O)Nc1ccc2ccccc2c1 [HAspβNA, α-L-aspartate-β-naphthylamide] |
|  |  |  |  | 1.7 fold | 983 ± 160 nM | 1720 ± 190 nM | 6.6 fold | 2100 ± 440 nM | > 10000 nM |  |  | N[C@H](CS)CCC(=O)O [GluSH, (4S)-4-amino-5-sulfanylpentanoic acid] |
| 221 ± 4 µM | 22.4 ± 0.1 s⁻¹ | 1500 ± 79.6 µM | 4.95 ± 0.1 s⁻¹ |  |  |  |  |  |  | 4 | 6 | N[C@@H](CCC(=O)O)C(=O)Nc1ccc2ccccc2c1 [HGluβNA, α-L-glutamyl-β-naphthylamide] |
|  |  |  |  |  | 3220 ± 200 nM | 475 ± 140 nM |  | 5140 ± 560 nM | 1250 ± 57 nM |  |  | CSCC[C@H](N)CS [MetSH] |
| 544 ± 74 µM | 41.5 ± 1.6 s⁻¹ | 651 ± 43.8 µM | 12.6 ± 0.04 s⁻¹ |  |  |  |  |  |  |  |  | C[C@H](N)C(=O)Nc1ccc2ccccc2c1 [HAlaβNA, α-L-alanine-β-naphthylamide] |
|  |  |  |  |  | 7510 ± 660 nM | 118 ± 13 nM |  | 13900 ± 390 nM | 378 ± 20 nM |  |  | NCCCC[C@H](N)CS [LysSH, (2S)-2,6-diaminohexane-1-thiol] |

| Compound | Km ([1]; 4 mM Ca2+) | kcat ([1]; 4 mM Ca2+) | Km ([1]; no Ca2+) | kcat ([1]; no Ca2+) | enhancement of inhibitory potency by 4 mM Ca2+ compared to Ki in the absence of Ca2+ [2] | Ki ([2]; 4 mM Ca2+) | Ki ([2]; absence of calcium) | enhancement of inhibitory potency by 4 mM Ca2+ compared to Ki in the absence of Ca2+ [3] | Ki ([3]; 4 mM Ca2+) | Ki ([3]; absence of calcium) | decrease in hydrolysis velocity (kcat) compared to wild-type (factor) ([1]; presence of Ca2+) | decrease in the affinity of the enzyme for the substrate compared to wild-type (factor) ([1]; presence of Ca2+) |
| --- | --- | --- | --- | --- | --- | --- | --- | --- | --- | --- | --- | --- |
| NCCCC[C@H](N)C(=O)Nc1ccc2ccccc2c1 [HLysβNA, α-L-lysine-β-naphthylamide] | 159 ± 7.8 µM | 11.6 ± 0.2 s⁻¹ | 394 ± 57 µM | 13.8 ± 0.7 s⁻¹ |  |  |  |  |  |  |  |  |
| N[C@H](CS)CCS(=O)(=O)O [EC33, (3S)‐3‐amino‐4‐sulfanylbutane‐1‐sulfonic acid] |  |  |  |  |  | 2000 ± 200 nM |  |  | 1520 ± 126 nM |  |  |  |
